How the values were obtained:
[1] = biological target: T1, Carbonic anhydrase (Candida albicans (strain SC5314 / ATCC MYA-2876) (Yeast), UniProt Q5AJ71)
T1 sequence (Q5AJ71 whole entry): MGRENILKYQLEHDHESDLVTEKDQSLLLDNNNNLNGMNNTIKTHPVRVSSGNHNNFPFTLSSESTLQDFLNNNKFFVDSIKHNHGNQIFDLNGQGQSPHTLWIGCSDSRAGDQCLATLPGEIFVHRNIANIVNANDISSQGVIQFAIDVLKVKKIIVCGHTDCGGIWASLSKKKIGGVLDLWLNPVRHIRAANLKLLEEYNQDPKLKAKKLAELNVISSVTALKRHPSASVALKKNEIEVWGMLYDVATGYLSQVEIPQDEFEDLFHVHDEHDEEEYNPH

[2] = biological target: Carbonic anhydrase 1 (Homo sapiens, UniProt P00915)
Carbonic anhydrase 1, sequence (P00915 whole entry): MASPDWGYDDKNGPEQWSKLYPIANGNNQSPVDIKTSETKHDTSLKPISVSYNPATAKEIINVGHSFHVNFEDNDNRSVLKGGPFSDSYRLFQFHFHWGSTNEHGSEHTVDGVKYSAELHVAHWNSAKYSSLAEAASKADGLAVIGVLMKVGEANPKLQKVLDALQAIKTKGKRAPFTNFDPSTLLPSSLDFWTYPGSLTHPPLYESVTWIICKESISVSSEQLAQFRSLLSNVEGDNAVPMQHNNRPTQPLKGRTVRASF

[3] = biological target: Carbonic anhydrase 2 (Homo sapiens, UniProt P00918)

| Structure (SMILES) | Ki [1] | Ki [2] | Ki [3] |
| --- | --- | --- | --- |
| OB(O)c1ccc2ccccc2c1 | 9.3 µM | – | – |
| OB(O)c1ccc(Br)cc1 | 15.9 µM | 11.7 µM | 7 µM |
| COc1ccc(B(O)O)cc1 | 15.6 µM | 10.9 µM | 7.9 µM |
| OB(O)/C=C/c1ccc(-c2ccccc2)cc1 | 42.3 µM | – | 373 µM |
| OB(O)c1ccc(Oc2ccccc2)cc1 | 8.6 µM | 6 µM | 11.5 µM |
| OB(O)/C=C/Cc1ccccc1 | 633 µM | 8.6 µM | 18.1 µM |
| Cc1ccc(/C=C/B(O)O)cc1 | 460 µM | – | 617 µM |
| CCCCc1ccc(B(O)O)cc1 | 8 µM | – | – |
| OB(O)/C=C/c1ccc(-c2ccc(C(F)(F)F)cc2)cc1 | 5210 µM | – | – |
| OB(O)c1ccc(-c2ccccc2)cc1 [BIPHENYLBORONIC ACID] | 7.8 µM | – | – |
| OB(O)c1ccccc1 [PHENYLBORONIC ACID] | – | 1560 µM | 1050 µM |
| OB(O)/C=C/c1ccccc1 [STYRYLBORONIC ACID] | 779 µM | – | 534 µM |
| Cc1ccc(B(O)O)cc1 [TOLYL BORONIC ACID] | 9 µM | 278 µM | 10.8 µM |

Reference: ChEMBL document CHEMBL1151882, “Carbonic anhydrase inhibitors. Inhibition of the fungal beta-carbonic anhydrases from Candida albicans and Cryptococcus neoformans with boronic acids” (Bioorg Med Chem Lett, 2009)
